This experiment relates to P388 leukemia ip, CD2F1 mice, survival T/C. The experiment can be described thus: NCI In Vivo Anticancer Drug Screen. Data for tumor model P388 Leukemia (intraperitoneal) in CD2F1 (CDF1) mice. The following applies: endpoint: median survival time, higher = longer survival. The method in brief: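 Mice carrying the transplanted tumor received test compound or vehicle. Survival was recorded in each group, and the value is the treated-group measurement divided by that of the vehicle-treated control group.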

Setting [1] is: dose: 12.5 mg/kg/injection, schedule: Q01DX009 (ip), vehicle: saline.
Where [2] appears, read: dose: 25.0 mg/kg/injection, schedule: Q01DX009 (ip), vehicle: saline.
[3] abbreviates: dose: 50.0 mg/kg/injection, schedule: Q01DX005 (ip), vehicle: saline with Tween-80.
Setting [4] is: dose: 100.0 mg/kg/injection, schedule: Q01DX005 (ip), vehicle: saline with Tween-80.
Where [5] appears, read: dose: 200.0 mg/kg/injection, schedule: Q01DX005 (ip), vehicle: saline with Tween-80.
The mark [6] stands for this setting: dose: 50.0 mg/kg/injection, schedule: Q01DX009 (ip), vehicle: saline.
Where [7] appears, read: dose: 60.0 mg/kg/injection, schedule: Q01DX005 (ip), vehicle: saline with Tween-80.
The mark [8] stands for this setting: dose: 25.0 mg/kg/injection, schedule: Q01DX005 (ip), vehicle: saline with Tween-80.
The mark [9] stands for this setting: dose: 50.0 mg/kg/injection, schedule: Q01DX009 (ip), vehicle: saline with Tween-80.
Where [10] appears, read: dose: 100.0 mg/kg/injection, schedule: Q01DX009 (ip), vehicle: saline with Tween-80.
[11] abbreviates: dose: 50.0 mg/kg/injection, schedule: Q04DX003 (ip), vehicle: saline with Tween-80.
[12] abbreviates: dose: 100.0 mg/kg/injection, schedule: Q04DX003 (ip), vehicle: saline with Tween-80.
The mark [13] stands for this setting: dose: 50.0 mg/kg/injection, schedule: Q01DX001 (ip), vehicle: saline.
The mark [14] stands for this setting: dose: 100.0 mg/kg/injection, schedule: Q01DX001 (ip), vehicle: saline.

Values joined by “and” are separate entries in the source; they are usually repeats but may differ in a detail not shown here. Equal entries are not always repeated. Inconclusive results and toxic doses are left out.

Take `CC1CCC(C)N1CCCCN1C(C)CCC1C` (centres undefined): the T/C was 104 % of control and 97 % of control (dose: 3.13 mg/kg/injection, schedule: Q01DX009 (ip), vehicle: saline); 100 % of control and 104 % of control (dose: 6.25 mg/kg/injection, schedule: Q01DX009 (ip), vehicle: saline); 100 % of control and 106 % of control under setting [1]; 96 % of control under setting [2].
As to `COc1ccc(SS(=O)c2ccc(C)cc2)cc1` (centres undefined), the T/C runs as follows: (dose: 100.0 mg/kg/injection, schedule: Q01DX001 (ip), vehicle: other) 105 % of control; (dose: 200.0 mg/kg/injection, schedule: Q01DX001 (ip), vehicle: other) 106 % of control; (dose: 400.0 mg/kg/injection, schedule: Q01DX001 (ip), vehicle: other) 111 % of control.
For `COC(=O)/C=C1\C=CC(=O)OC1O` (centres undefined), the T/C was 102 % of control (dose: 6.25 mg/kg/injection, schedule: Q01DX005 (ip), vehicle: Klucel (hydroxypropylcellulose) (HPC)); 103 % of control (dose: 12.5 mg/kg/injection, schedule: Q01DX005 (ip), vehicle: Klucel (hydroxypropylcellulose) (HPC)); 113 % of control (dose: 25.0 mg/kg/injection, schedule: Q01DX005 (ip), vehicle: Klucel (hydroxypropylcellulose) (HPC)).
For the compound `COc1ccc(-n2c(=O)c(N=Nc3ccccc3OC)c(O)n(-c3ccccc3Cl)c2=S)cc1`, the T/C (dose: 50.0 mg/kg/injection, schedule: Q01DX001 (ip), vehicle: Klucel (hydroxypropylcellulose) (HPC)) was 100 % of control; the T/C (dose: 100.0 mg/kg/injection, schedule: Q01DX001 (ip), vehicle: Klucel (hydroxypropylcellulose) (HPC)) was 99 % of control; the T/C (dose: 200.0 mg/kg/injection, schedule: Q01DX001 (ip), vehicle: Klucel (hydroxypropylcellulose) (HPC)) is 93 % of control.
With `COc1cccc(N=C(C)C2C(=O)c3ccccc3C2=O)c1`, the T/C under setting [3] was 109 % of control, the T/C under setting [4] is 100 % of control and the T/C under setting [5] was 95 % of control.
For the compound `O=[N+]([O-])c1cc(S(=O)(=O)O)c2cccnc2c1O`, the T/C runs as follows: (dose: 100.0 mg/kg/injection, schedule: Q04DX003 (ip), vehicle: saline) 86 % of control; (dose: 200.0 mg/kg/injection, schedule: Q04DX003 (ip), vehicle: saline) 89 % of control; (dose: 400.0 mg/kg/injection, schedule: Q04DX003 (ip), vehicle: saline) 88 % of control.
On to `CCC1(C)N=C(N)Nc2nc3cc(C)c(C)cc3n21` (centres undefined), for which the T/C is, setting by setting: under setting [1], 92 % of control; under setting [2], 91 % of control; under setting [6], 92 % of control and 94 % of control.
For the compound `Cc1[nH]c(=O)nc(CCc2ccccc2)c1-c1ccccc1`, the T/C runs as follows: under setting [7], 93 % of control; (dose: 120.0 mg/kg/injection, schedule: Q01DX005 (ip), vehicle: saline with Tween-80) 87 % of control.
On to `CCc1[nH]c2ccccc2c1C(=O)c1cccnc1`, for which the T/C by setting is: (dose: 50.0 mg/kg/injection, schedule: Q04DX003 (ip), vehicle: Klucel (hydroxypropylcellulose) (HPC)) 101 % of control; (dose: 100.0 mg/kg/injection, schedule: Q04DX003 (ip), vehicle: Klucel (hydroxypropylcellulose) (HPC)) 97 % of control; (dose: 200.0 mg/kg/injection, schedule: Q04DX003 (ip), vehicle: Klucel (hydroxypropylcellulose) (HPC)) 100 % of control.
As to `O=C1c2ccccc2C(Cl)(c2ccc(Cl)cc2)c2ccc(Cl)cc21` (centres undefined), the T/C under setting [8] is 107 % of control.
On to `COc1ccc(CSC(=S)Nc2cc(C)c(C)cc2[N+](=O)[O-])cc1`, for which the T/C runs as follows: (dose: 50.0 mg/kg/injection, schedule: Q01DX009 (ip), vehicle: suspension in saline) 93 % of control; (dose: 100.0 mg/kg/injection, schedule: Q01DX009 (ip), vehicle: suspension in saline) 97 % of control; (dose: 200.0 mg/kg/injection, schedule: Q01DX009 (ip), vehicle: suspension in saline) 97 % of control.
Turning to `CC1(C)OC(=O)C(CCc2ccccn2)(CCc2ccccn2)C(=O)O1`, the T/C by setting is: (dose: 12.5 mg/kg/injection, schedule: Q01DX009 (ip), vehicle: saline with Tween-80) 113 % of control; (dose: 25.0 mg/kg/injection, schedule: Q01DX009 (ip), vehicle: saline with Tween-80) 103 % of control; under setting [9], 110 % of control; under setting [10], 114 % of control; (dose: 200.0 mg/kg/injection, schedule: Q01DX009 (ip), vehicle: saline with Tween-80) 104 % of control.
Turning to `C=CC(=O)NCC(=O)O`, the T/C is 100 % of control under setting [6]; 103 % of control (dose: 100.0 mg/kg/injection, schedule: Q01DX009 (ip), vehicle: saline); 109 % of control (dose: 200.0 mg/kg/injection, schedule: Q01DX009 (ip), vehicle: saline).
As for `CC(=O)O[C@@H]1C[C@H]2C(C)(C)C(=O)C=C[C@]2(C)[C@H]2CC[C@]3(C)C(=CC(=O)O[C@H]3c3ccoc3)[C@@]21C`, the T/C is, setting by setting: (dose: 2.5 mg/kg/injection, schedule: Q01DX009 (ip), vehicle: Klucel (hydroxypropylcellulose) (HPC)) 103 % of control; (dose: 5.0 mg/kg/injection, schedule: Q01DX009 (ip), vehicle: Klucel (hydroxypropylcellulose) (HPC)) 100 % of control; (dose: 10.0 mg/kg/injection, schedule: Q01DX009 (ip), vehicle: Klucel (hydroxypropylcellulose) (HPC)) 103 % of control and 97 % of control; (dose: 20.0 mg/kg/injection, schedule: Q01DX009 (ip), vehicle: Klucel (hydroxypropylcellulose) (HPC)) 95 % of control; (dose: 40.0 mg/kg/injection, schedule: Q01DX009 (ip), vehicle: Klucel (hydroxypropylcellulose) (HPC)) 103 % of control.
Take `C1CCN(P(N2CCCCC2)N2CCCCC2)CC1`: the T/C is, setting by setting: (dose: 25.0 mg/kg/injection, schedule: Q04DX003 (ip), vehicle: saline with Tween-80) 100 % of control; under setting [11], 100 % of control; under setting [12], 102 % of control and 104 % of control.
As to `CC1NC(C)N2C(C)N12` (centres undefined), the T/C is, setting by setting: (dose: 25.0 mg/kg/injection, schedule: Q01DX001 (ip), vehicle: saline) 105 % of control; under setting [13], 104 % of control; under setting [14], 104 % of control.
With `Nc1nc(-c2ccc([N+](=O)[O-])cc2)c([N+](=O)[O-])c(=O)[nH]1`, the T/C runs as follows: (dose: 3.0 mg/kg/injection, schedule: Q01DX009 (ip), vehicle: saline with Tween-80) 105 % of control; (dose: 6.0 mg/kg/injection, schedule: Q01DX009 (ip), vehicle: saline with Tween-80) 110 % of control; (dose: 12.0 mg/kg/injection, schedule: Q01DX009 (ip), vehicle: saline with Tween-80) 110 % of control.
Regarding `COC(=O)c1ccc(NCC(=N)N)cc1`, the T/C reads like this: under setting [13], 100 % of control; under setting [14], 100 % of control; (dose: 200.0 mg/kg/injection, schedule: Q01DX001 (ip), vehicle: saline) 104 % of control.
Take `CCN(CC)CCOc1ccccc1C(C)=O`: the T/C under setting [8] is 93 % of control and the T/C under setting [3] was 99 % of control.
As to `CC1CC(C)(C)N=C(CCC2CCCCCC2=O)O1` (centres undefined), the T/C was 100 % of control under setting [11]; 100 % of control under setting [12]; 100 % of control (dose: 200.0 mg/kg/injection, schedule: Q04DX003 (ip), vehicle: saline with Tween-80).
Regarding `COc1ccc(CCNC2Oc3ccc([N+](=O)[O-])cc3-c3nc(C)c(C#N)cc32)cc1OC` (centres undefined), the T/C reads like this: (dose: 15.0 mg/kg/injection, schedule: Q01DX005 (ip), vehicle: saline with Tween-80) 98 % of control; (dose: 30.0 mg/kg/injection, schedule: Q01DX005 (ip), vehicle: saline with Tween-80) 98 % of control; under setting [7], 91 % of control and 92 % of control.
As for `Cc1nn(-c2ccccn2)c2ncnc(N)c12`, the T/C is, setting by setting: under setting [3], 95 % of control; under setting [4], 101 % of control; under setting [5], 95 % of control.
Consider `COC(=O)c1cc(=O)n(-c2ccccc2C)c(SC)n1`, for which the T/C is 105 % of control (dose: 100.0 mg/kg/injection, schedule: Q04DX002 (ip), vehicle: Klucel (hydroxypropylcellulose) (HPC)) and 105 % of control (dose: 200.0 mg/kg/injection, schedule: Q04DX002 (ip), vehicle: Klucel (hydroxypropylcellulose) (HPC)).
As to `C[Si](C)(C)CNC(=O)OCc1ccccc1`, the T/C was 97 % of control (dose: 60.0 mg/kg/injection, schedule: Q01DX005 (ip), vehicle: saline); 95 % of control (dose: 120.0 mg/kg/injection, schedule: Q01DX005 (ip), vehicle: saline); 95 % of control (dose: 240.0 mg/kg/injection, schedule: Q01DX005 (ip), vehicle: saline).
`ClC1(Cl)C2CCCCC21` (centres undefined): the T/C runs as follows: under setting [9], 100 % of control; under setting [10], 90 % of control.

Source of the values: PubChem BioAssay AID330 (DTP/NCI, 2004).
